Results as given in patent publication US9408910B2, “Anticancer prodrug activated by radiation or ultraviolet treatment and use thereof” (priority 2011, dated 2016).
Numbered stars: 1 amine (or outer) side, 2 acyl side, 3 side chain; on linkers, the order of the positions; unused ones are H or OH. Square brackets hold non-standard residues; d marks the D form. Peptide text beside a SMILES is read from it. * marks the point of attachment. Doxorubicin(3'-N) = COc1cccc2c1C(=O)c1c(O)c3c(c(O)c1C2=O)C[C@@](O)(C(=O)CO)C[C@@H]3O[C@H]1C[C@H](N*)[C@H](O)[C@H](C)O1; PABC = O=C(OCc1ccc(N[*:1])cc1)[*:2]

Assays:
SCC 7 cells = experiment: Cytotoxicity evaluation by in vitro MTT assay (Example 4); assay type: cell-based; settings: no caspase-3 expression
Protocol: Cytotoxicity was evaluated by in vitro MTT assay.
In detail, SCC 7 cells were radiated at a dose of 1 Gy, 5 Gy, or 10 Gy, and then the medium was removed after 2 h, 6 h, 12 h, 24 h, or 48 h. 20 μl of MTT solution per 100 μl of medium was treated, and then reacted at 30° C. for 1 hour in the dark. Thereafter, the cells were washed with PBS three times, and the medium was removed. 100 μl of DMSO was added to dissolve MTT formazan, followed by ELASA (test wavelength: 570 nm).
That is, total 6 experiments were carried out, and the results are shown FIGS. 9a to 9f. a) Radiation of cells at a radiation dose of 1 Gy, 5 Gy, 10 Gy, 15 Gy, 20 Gy, followed by MTT assay (radiation MTT assay), b) Treatment of cells with doxorubicin at a dose of 0.1 μM, 0.5 μM, 1 μM, and 5 μM, followed by MTT assay (Doxorubicin MIT assay), c) Treatment of cells with anticancer prodrug (KGDEVD-DOX) prepared in Example 1, followed by MTT assay (KGDEVD-DOX MTT assay), d) Treatment of cells with caspase-3-treated anticancer prodrug (KGDEVD-DOX) prepared in Example 1, followed by MIT assay (Cleaved Dox by Caspase-3 MIT assay), e) Treatment of cells with doxorubicin and radiation, followed by MIT assay (Doxorubicin+RT MTT assay), f) Treatment of cells with […], followed by MTT assay (KGDEVD-DOX+RT MTT assay). […]

[1] = test system: tumor mouse models transplanted with SCC 7 cell line; settings: 5 Gy radiation, then 10 mg/kg i.v. every day for 3 days; FIG. 18
Protocol: That is, tumor mouse models transplanted with SCC 7 cell line were radiated using a gamma knife (5 Gy). 24 hrs after radiation, the caspase-3 sensitive anticancer prodrug was administered into the animals via intravenous injection (10 mg/kg). At this time, the same dose of the drug was administered into the animals every day for 3 days, and then tumor growth and survival rate were measured every day until the experiments were terminated after radiation. The organs were removed from each experimental group after completion of the experiment, and cytotoxicity of the drug was examined.

[2] = test system: tumor mouse models transplanted with SCC 7 cell line; experiment: Anti-tumor therapeutic effect of the anticancer prodrug with radiation (Example 3); assay type: in vivo; settings: administered together with radiation (5 Gy, gamma knife); prodrug 3 mg/kg i.v. 24 hr after radiation and again after 2 days; FIG. 8

Row | Compound | cytotoxicity when caspase-3 was not expressed (SCC 7 cells) | side effects (cytotoxicity of the drug in removed organs) [1] | tumor size (tumor growth) [2]
1 | COc1cccc2c1C(=O)c1c(O)c3c(c(O)c1C2=O)C[C@@](O)(C(=O)CO)C[C@@H]3O[C@H]1C[C@H](NC(=O)OCc2ccc(NC(=O)[C@H](CC(=O)O)NC(=O)[C@@H](NC(=O)[C@H](CCC(=O)O)NC(=O)[C@H](CC(=O)O)NC(=O)CNC(=O)[C@H](CCCCN)NC(C)=O)C(C)C)cc2)[C@H](O)[C@H](C)O1 [KGDEVD-DOX, Ac-Lys-Gly-Asp-Glu-Val-Asp-PABC-DOX] (Ac-KGDEVD[PABC]-{Doxorubicin(3'-N)}) | no cytotoxicity | reduced side effects | –
2 | COc1cccc2c1C(=O)c1c(O)c3c(c(O)c1C2=O)C[C@@](O)(C(=O)CO)C[C@@H]3O[C@H]1C[C@H](N)[C@H](O)[C@H](C)O1 [doxorubicin] | – | – | tumor was reduced in size
